This is an account of results in patent publication US20260256924A1, “INDOCYANINE GREEN (ICG) MODIFICATION FOR TREATMENT OF LIVER CANCER” (The Children's Medical Center Corporation, priority 2022, published 2026).

For one data set, the system named is FLC tumor tissue. In words: Gross and microscopic ICG localization in FLC patients (near-infrared fluorescence at surgery). Type of data set: in vivo, patient. To be noted: intravenous ICG 48 hours prior to surgery, FIGS. 31A-31D. The procedure:
ICG is administered several days prior to surgery, which subsequently is cleared from the blood and normal liver but is retained in tumor tissue. At the time of surgery, a near-infrared camera is used to identify ICG retaining tumor tissue since it fluoresces in response to near-infrared wave.^22,23 The use of ICG for localization of HCC and hepatoblastoma has been reported^16-18,21,22,30 however, there are no published reports regarding its use in FLC. […] The MDR3 transporter, which is responsible for export of ICG into the bile canaliculi is also expressed in tumor cells, albeit at lower levels.

In another data set the test system is Huh7 tumor cells. In words: In vivo fluorescence imaging following ICG administration in Huh7 xenograft mice. The arrangement: species or system immunodeficient mice. To be noted: 0.5 mg/kg ICG dose, FIG. 32. The procedure:
Other areas of high signal represents concentration within the intestinal lumen. Control mouse without tumor is shown on the left side.
Xenotransplantation of the following cell lines is performed: FLX1 (FLC), Huh-7 (HCC) and HepG2 (well-differentiated HCC) in immunodeficient mice. […] Therefore, the dose is escalated to an appropriate level. Even though the majority of the models use HCC cells, the findings are applicable to FLC since FLC also has the ability to retain ICG (FIGS. 31A-31D). Currently, there is only one readily available FLC cell line, which also has the property to be engrafted in an immunodeficient mouse model.

Data set [1] in a line: In vivo biodistribution of 18F-SFB-ICG in wild type mice by whole body PET/CT. Also noted: species or system female C57BL/6 mice. The procedure:
(§1) The study was comprised of female C57BL/6 mice (n=4, 20.4+0.8 g, age 12.9 weeks). The modalities were whole body PET/CT and whole blood gamma counting which were performed on the mice using the imaging agent ^18F-SFB-ICG as outlined in Table 1. Briefly, the mice were imaged in a 2-bed imaging hotel with imaging agent administered intravenously while animals were on camera (volume dosed was maintained constant to keep mass dose constant). 1 hour dynamic PET data was acquired, followed by CT. A static 30 minute PET dataset was acquired at 4 hours, also followed by CT. A blood sample was taken immediately following each imaging time point for gamma counting.
PET/CT: PET images were co-registered to CT images and resampled to uniform voxel size (0.2 mm^3). The injected activity doses were normalized to the averaged activity in the field of view (FOV) in the final 6 frames of the dynamic scan (FOV-based normalization). The Regions of Interest (ROIs) were defined using various methods in VivoQuant software: A fixed volume ellipsoidal ROI was placed in the center of the heart, to encompass a volume of representative concentration for that region. The fixed volume sphere ROIs were placed in the center of the lobes of the lungs (2), and throughout the spleen (3) to encompass a volume of representative concentration for those regions. Based on the CT and PET, the following organs were segmented as completely as possible: liver, gallbladder, small intestines, cecum, and large intestines. The activity concentration was reported as Standardized Uptake Value (SUV), equating to the […]. For fully segmented organs, uptake was also reported in percentage injected dose (% ID). FIGS. 17A-17D show resulting PET/CT images of a representative wild type mouse.

A short description of data set [2]: Whole blood gamma counting after 18F-SFB-ICG injection. Format: in vivo, female C57BL/6 mice. To be noted: FIG. 24B. As for the experimental part:
as §1
Gamma Counting: Whole blood samples were collected after each imaging session for ex vivo radioactivity analysis by gamma counting. Triplicates of ^18F-SFB-ICG were also counted to calculate an efficiency factor from which counts could be converted to units of activity (μCi). The sample activities were corrected for background radiation and decay-corrected to the injection time. The tissue volumes were estimated through measurement of sample weights, and blood activity was reported as % ID/g and SUV.

A short description of data set [3]: [18F]SFB-ICG stability by HPLC (RCP). Format: physicochemical. As for the experimental part: FIGS. 11A-11B show HPLC traces of [^18F]SFB-ICG stability at 1 hour, and 2 hours.

Entries after “also recorded” stand apart in the source; their conditions may differ.

In the case of `CC1(C)C(/C=C/C=C/C=C/C=C2\N(CCCCS(=O)(=O)O)c3ccc4ccccc4c3C2(C)C)=[N+](CCCCS(=O)(=O)[O-])c2ccc3ccccc3c21` [ICG, indocyanine green], in the data set on FLC tumor tissue, the “ICG uptake/accumulation in FLC tumor tissue and metastases” value is recorded as “accumulation of ICG in metastatic tumor bed; also recorded: fluorescence (white) within tumor cells; also recorded: accumulates in FLC; also recorded: ICG uptake by tumor tissue in the liver as well as metastatic deposits”. In the data set on Huh7 tumor cells, the “uptake by implanted Huh7 tumor cells” value is recorded as “demonstrate uptake; also recorded: ICG uptake by Huh7 tumor cells”.
As for `CC1(C)C(/C=C/C=C/C=C/C=C2/N(CCCCCC(=O)NCCNC(=O)c3ccc([18F])cc3)c3ccc4ccccc4c3C2(C)C)=[N+](CCCCS(=O)(=O)[O-])c2ccc3ccccc3c21` [[^18F]ICG], the “time to evidence of excretion of the tracer into the gallbladder via the biliary system” value in data set [1] (IV, wild-type mice) is at most 20 min. In addition, the “time to evidence of the tracer in the lumen of the small intestine” value in data set [1] (IV, wild-type mice) is at most 45 min. Also, the “signal intensity in the liver” value in data set [1] (at 4 hours post injection) was “decreased significantly”. The tracer localization entry in data set [1] (at 4 hours post injection) is “majority of the tracer is localized to the lumen of the intestines”; in data set [1] (by 5 minutes post injection), “predominantly localized to the liver”; in data set [1] (time 0 post injection), “localized to the heart and the major vessels”. Moreover, in data set [1] (cecum, at 4 hours, IV, wild-type mice), the “percentage of injected dose localized to the cecum” value is recorded as “approximately 30 % ID”. In addition, the “percentage of injected dose localized to the liver” value in data set [1] (by 10 minutes, IV, wild-type mice, FIG. 18B) is listed as around 70%; in data set [1] (by 4 hours, IV, wild-type mice), “about 40 % ID”. Moreover, the “uptake by other organs via the circulation” value in data set [1] (organs other than liver) is given as “no significant uptake by any other organs”. Besides, the “activity present in whole blood” value in data set [2] (1 hour) is recorded as 2-2.5 % ID; in data set [2] (4 hours), 1 % ID.
Consider `CC1(C)C(/C=C/C=C/C=C/C=C2/N(CCCCCC(=O)NCCNC(=O)c3ccc([18F])cc3)c3ccc4ccccc4c3C2(C)C)=[N+](CCCCS(=O)(=O)[O-])c2ccc3ccccc3c21` [[^18F]SFB-ICG], for which the figures for the “RCP (stability)” value in data set [3] (at 1 hour) and in data set [3] (at 2 hours) were 95% and 96%, respectively.
Turning to `CC1(C)C(/C=C/C=C/C=C/C=C2/N(CCCCCC(=O)NCCNC(=O)c3ccc([18F])cc3)c3ccc4ccccc4c3C2(C)C)=[N+](CCCCS(=O)(=O)[O-])c2ccc3ccccc3c21` [^18F-SFB-ICG], the tracer localization entry in data set [1] (at 4 hours post injection) is recorded as “most intense signal is present within the lumen of the intestines”; in data set [1] (by 5 minutes post injection), “majority of the tracer is localized to the liver”. Also, the “PET signal in large intestines and cecum” value in data set [1] (time activity curves, FIGS. 18A-18B) is reported as “not observed until the 4 hour time point”.
